# Reference: PMC9494960, “Antiamoebic Activity of Imidazothiazole Derivatives against Opportunistic Pathogen Acanthamoeba castellanii” (Antibiotics, 2022)
# Tests used:
# human cell lines = test: MTT assay (EC50/CC50 and MNTD90); assay type: cell-based; settings: for CC50: 50% effective/cytotoxic concentration (CC50), tested at 12.5–100 µM; for EC90: Maximum Non-Toxic Dose, read-out: MNTD/EC90
# [1] = system: A. castellanii trophozoites; test: Encystation assay; assay type: cell-based, Acanthamoeba castellanii; settings: 50 µM, 16% glucose, 30 °C, 48–72 h; negative control 100%
# Protocol: Encystation assays were performed to determine the effects of the tested compounds to prevent the differentiation of A. castellanii trophozoites into the cyst form and 50 µM of the tested compounds were utilized. Briefly, A. castellanii (1 × 10^6) trophozoites were incubated with these compounds with 16% filter-sterilized glucose (as encystation medium) at 30 °C 48–72 h. A. castellanii cultured alone in 16% glucose was taken as negative control. After this incubation, 0.1% sodium dodecyl sulfate (SDS) was added to each well and agitated the plate for 20 min. The SDS resistant cysts were enumerated using a haemocytometer and data was recoded.
# [2] = system: A. castellanii genotype T4 (ATCC 50492) trophozoites; test: Amoebicidal assay (Trypan blue exclusion, haemocytometer counting); assay type: cell-based, Acanthamoeba castellanii; settings: for Amoebicidal Activity Inhibition % ± SEM: 50 µM concentration, Supplementary Table S1; for amoebicidal effects / antiamoebic activity against A. castellanii: 50 µM, 24 h, 30 °C; for IC50: tested at 12.5, 25, 50 and 100 µM against A. castellanii
# Protocol: A. castellanii genotype T4 (ATCC 50492) trophozoites were used in this study. The amoebae were axenically cultivated at 30 °C in T-75 cm^3 culture flask using a proteose-peptone yeast extract-glucose (PYG) broth culture. Upon confluency, amoeba cultured flask was placed on ice for 10 min followed by gently tapping to dislodge the adhered trophozoites. Next, culture was centrifuged at 3000× g for 5 min. The supernatant was discarded and the pellet was re-suspended in 1 mL of Roswell Park Memorial Institute (RPMI) media. Finally, amoebae were counted via haemocytometer microscopically and the desired initial inoculum (5 × 10^5) was adjusted and used in different assays. Different molecules were tested against A. castellanii to examine their antiamoebic effects as previously reported. Briefly, A. castellanii (5 × 10^5) were incubated with 50 µM of the tested compounds for 24 h at 30 °C with a final assays volume of 0.5 mL in a 24-well plate. For controls, amoebae cultured in RPMI alone and with 0.25% sodium dodecyl sulfate (SDS) was taken as negative and positive control, respectively. Finally, each well was stained with Trypan blue (0.1%) and viable amoebae trophozoites were enumerated by haemocytometer. In some trails, these compounds were tested at different concentrations (12.5, 25, 50 and 100 µM) to determine their 50% inhibitory concentration (IC50) against A. castellanii.
# [3] = system: A. castellanii binding to HeLa cells; test: Adhesion assay: amoebae binding to human cells; assay type: cell-based, Acanthamoeba castellanii; settings: amoebae pre-treated with 50 µM for 2 h; 60 min on HeLa monolayer
# Protocol: Adhesion assays were performed to determine how the tested molecules affect the binding capability of amoebae to human cells. Firstly, A. castellanii (5 ×10^5) trophozoites were treated with 50 µM of the compounds in serum-free RPMI medium at 30 °C for 2 h. Next, pre-treated amoebae were centrifuged at 3000× g for 5 min and re-suspended the amoeba in 200 µL of RPMI medium. The total assay volume including pre-treated amoeba was transferred to a confluent HeLa cell monolayer cultured in 96-well plates. For control, amoebae trophozoites alone were added to HeLa cell monolayer. The plates were incubated for 60 min at 37 °C with 5% CO2 and 95% humidity and amoebae (unbound) were then counted by haemocytometer. Percent bound amoebae was calculated using the following formula: % amoebae (bound) = 100 − amoebae (unbound)(1)
# [4] = system: A. castellanii-mediated HeLa cell death; test: Amoeba-mediated host cell cytotoxicity (cytopathogenicity assay, LDH); assay type: cell-based, Acanthamoeba castellanii; settings: amoebae pre-treated with 50 µM for 2 h; HeLa overnight; negative control amoeba + cells 100%
# Protocol: Cytopathogenicity assays were accomplished to determine the amoeba-mediated host cell death. A. castellanii (5 × 10^5) trophozoites were treated with 50 µM of the tested molecules at 30 °C for 2 h. Culture containing pre-treated amoebae was centrifuged at 3000× g for 5 min and pellet was re-suspended in 200 µL of serum free RPMI. The whole assay volume with pre-treated amoebae was transferred to HeLa cell monolayer cultured in a 96 well plates. Next, the plates were kept for overnight at 37 °C with 95% humidity and 5% CO2. Finally, amoeba-mediated host cell cytotoxicity was evaluated indirectly by measuring the amount of LDH enzyme released into cell media by damaged cells, as reported earlier.
# V600E-B-RAF = system: V600E-B-RAF; parameters: method as in PMID 32962435; settings: cited from earlier work
# C-RAF = system: C-RAF; parameters: method as in PMID 32962435; settings: cited from earlier work
# A. castellanii = system: A. castellanii; parameters: method as in PMID 34959694; settings: cited from earlier work
Structure (SMILES),CC50 (human cell lines) [µM],EC90 (human cell lines) [µM],encystation blocked (trophozoites prevented from converting into cysts) [1] [%],Amoebicidal Activity Inhibition % ± SEM [2],amoebicidal effects / antiamoebic activity against A. castellanii [2] [%],IC50 [2] [µM],inhibition of amoebae binding to human cells [3] [%],amoeba-mediated host cell death reduced up to [4] [%],inhibitory effects against V600E-B-RAF kinase (V600E-B-RAF),inhibitory effects against C-RAF kinase (C-RAF),concentration that prevented excystment in A. castellanii (A. castellanii) [µM]
O=C(NCCNc1nccc(-c2c(-c3ccc(F)cc3)nc3sccn23)n1)c1cc(C(F)(F)F)cc(C(F)(F)F)c1 [Compound 1i],1410,90.9,60,55.05% ± 1.25%,55,43.1,42,45,,,
COc1cccc(-c2nc3sccn3c2-c2ccnc(NCCNC(=O)Nc3cccc(C(F)(F)F)c3)n2)c1 [Compound 1m],313,29.5,72,69.17% ± 2.39%,70,30,61,33,modest inhibitory effects,modest inhibitory effects,
O=C(NCCNc1nccc(-c2c(-c3cccc(O)c3)nc3sccn23)n1)c1ccc(N2CCOCC2)c(C(F)(F)F)c1 [Compound 1zb],434,24.1,78,67.00% ± 3.19%,67,32.4,55,46,,,
CNCC(=O)OCc1cccnc1N(C)C(=O)OC(C)[n+]1cnn(C[C@](O)(c2cc(F)ccc2F)[C@@H](C)c2nc(-c3ccc(C#N)cc3)cs2)c1.O=S(=O)([O-])O (stereo partly drawn) [isavuconazonium sulfate],,,,,,,,,,,136
